# Test results published in patent publication US20230220331A1, “TEMPORARY TREATMENT MEDIUM, TREATMENT KIT, EMBRYOGENESIS ARREST INHIBITOR, EMBRYOGENESIS ARREST INHIBITORY METHOD, DEVELOPMENTAL ENGINEERING PRODUCT PREPARATION METHOD, TRANSPLANTATION METHOD, THERAPEUTIC METHOD, AND DEVELOPMENTAL ENGINEERING PRODUCT” (priority 2020, published 2023).
# Key:
# inbred mouse B6J embryos = assay: Generation of Flox inbred mice (individuals) by one-step method, high concentration ssODN (Treatment Example 11); type: cell-based; conditions: floxed MK2 1STEP (HIGH CONCENTRATION)
# Procedure: Furthermore, in the same manner, the individual production is performed in an inbred mouse B6J strain by an electroporation method (1STEP method) by using a high concentration ssODN.
# [1] = tested on: Pronuclear stage embryos of C57BL/6J; assay: Knockout mouse production by electroporation (TAKE), Mk-3 gene (Treatment Example 1); type: cell-based
# Procedure: The TAKE was carried out according to the method described in Patent Document 2.
# 1. By 3 hours before TAKE, Y-27632-added mWM medium (Y-27632 final concentration 10 μM, an example of the “temporary treatment medium” of this example) and Y-27632-free mWM medium (an example of “normal medium” of this example) were dropped on 35 mm Petri dish in 5 drops, respectively, to prepare the drops covered with paraffin oil.
# 2. Pronuclear stage embryos were collected from the drops, placed in Y-27632-added mWM medium, and cultured for about 30 minutes to 1 hour (temporary treatment).
# 3. After that, TAKE was performed. At the time of this TAKE, as described above, the pronuclear stage embryo, after washing, was transferred to a genome editing solution for TAKE or an Opti-MEM solution. The same applied to the following processing.
# 4. After TAKE, the embryos were placed in Y-27632-added mWM medium (temporary treatment) and cultured under 37° C., 5% CO2, and ([…]) conditions until the next day (1 hour or more and within 12 hours).
# 5. If necessary, culture was continued or embryo transfer was performed in Y-free mWM medium.
# According to a typical method, in the afternoon when female mice and rats were mated with males with vasoligation and confirmed to be plugged, about 10 each were transplanted into the left and right oviducts or uterus of plug-confirmed mature female mice and rats. […]
# [2] = tested on: two-cell frozen embryos of heterologous inbred SPR2 mouse; assay: Individual production from frozen eggs of SPR2 (Treatment Example 3); type: cell-based, Mus spretus; conditions: SPR2 frozen 2-cell embryos thawed, 1 hour in Y-27632 medium
# Procedure: 1. Up to 3 hours before TAKE, Y-27632-added mWM medium (Y-27632 final concentration 10 μM, an example of the “temporary treatment medium” of this example), Y-27632-free mWM medium (an example of “normal medium” of this example) were dropped into 35 mm Petri dishes by 5 drops, respectively, to prepare drops covered with paraffin oil. 2. Two-cell stage embryos were collected from the drops or thawed, placed in Y-27632-added mWM medium, and cultured for about 30 minutes to 1 hour (temporary treatment). According to a typical method, in the afternoon when female mice and rats were mated with males with vasoligation and confirmed to be plugged, about 10 each were transplanted into the left and right oviducts or uterus of plug-confirmed mature female mice and rats. In this production example, two-cell frozen embryos of SPR2 were thawed, cultured in a temporary treatment medium containing Y-27632 for 1 hour, and transplanted into the uterus of a pseudopregnant female mouse. […] As a result, frozen embryo-derived individuals (16 transplanted embryos, 6 newborns) were obtained.
# [3] = tested on: two-cell stage embryo of a heterologous inbred SPR2 mouse; assay: Heterologous Tyr knockout mouse production (Treatment Example 8); type: cell-based, Mus spretus; conditions: SPR2, Tyr KO
# Procedure: 1. Up to 3 hours before TAKE, Y-27632-added mWM medium (Y-27632 final concentration 10 μM, an example of the “temporary treatment medium” of this example), Y-27632-free mWM medium (an example of “normal medium” of this example) were dropped into 35 mm Petri dishes by 5 drops, respectively, to prepare drops covered with paraffin oil.
# 2. Two-cell stage embryos were collected from the drops or thawed, placed in Y-27632-added mWM medium, and cultured for about 30 minutes to 1 hour (temporary treatment).
# 3. After that, TAKE was performed.
# 4. After TAKE, the embryos were placed in Y-27632-added mWM medium and cultured for about 30 minutes to 1 hour (temporary treatment). Then, the embryos were placed in Y-27632-free mWM medium and cultured at 37° C. under 5% CO2 and 5% O2 conditions until transplantation.
# By using a two-cell stage embryo of a heterologous inbred SPR2 mouse, four guide RNAs (crRNA: tracrRNA) for the Tyr gene were used about 100 ng/μL per RNA, for a total of about 400 ng/μL, and it was electroporated once or twice. Before and after electroporation, the embryos were cultured in the temporary treatment medium of this example.
# [4] = 16 blastocysts transferred to uterus (3.5 days)
structure (smiles),measurement,setting,value
"C[C@@H](N)[C@H]1CC[C@H](C(=O)Nc2ccncc2)CC1 [Y-27632, trans-4-[(1R)-1-Aminoethyl]-N-4-pyrid inylcyclohexanecarboxamide]",Flox individuals %,inbred mouse B6J embryos,16.7%
same,NUMBER OF FLOX INDIVIDUALS,inbred mouse B6J embryos,1/6
same,birth rate increased,"[1]; C57BL/6J embryos cultured in Y-27632 medium before and after electroporation, Mk-3 knockout with two gRNAs, versus without Y-27632",about 5 times
same,efficiency of non-homologous end joining (NHEJ),"[1]; C57BL/6J, Mk-3 knockout, Y-27632 before and after electroporation",did not change
same,NUMBER OF BIRTHS FEMALE,[2]; [4],4
same,NUMBER OF BIRTHS MALE,[2]; [4],2
same,NUMBER OF BIRTHS TOTAL (newborns),[2]; 16 embryos transferred to uterus (3.5 days),6
same,mosaics obtained,[3]; electroporated once,3
same,individuals obtained,"[3]; electroporated once, 20 embryos transplanted",7
same,mosaics obtained,[3]; electroporated twice,3
same,whites (homo or compound heterozygote) obtained,[3]; electroporated twice,3
same,individuals obtained,"[3]; electroporated twice, 13 embryos transplanted",7
